# From US20250074894A1, “NITROPHENYL-ACRYLAMIDES AND USES THEREOF” (BROWN UNIVERSITY, priority 2021, published 2025)
# Assays:
# [1] = target: FTO (Homo sapiens, UniProt Q9C0B1); test: FTO activity assay (demethylation of m6A methylated RNA substrate); format: biochemical; conditions: for inhibition at 20 µM: read-out: reduction of FTO activity / FTO activity inhibition
# Description: An FTO activity assay was performed to determine the inhibitory activity of compounds provided herein towards FTO and compare them with entacapone. This assay measures the ability of FTO to demethylate an m6A methylated RNA substrate. The assay is specific to FTO and is not affected by the function of ALKBH5, which is another RNA demethylase in eukaryotic cells.
# [2] = tested on: Glioma stem cells; test: Glioma stem cell viability, Cell Titer Glo; format: cell-based, human; conditions: 48 hours
# Description: Glioma stem cells were incubated with various increasing concentrations of Compound 31 and the percentage of viable cells at 48 hours was quantified using Cell Titer Glo (Promega). […] For the functional assays described below, the IC10 was used to maintain at least 90% viability.
# [3] = tested on: Patient derived glioma stem cells (GSCs); test: GSC invasion live imaging (Incucyte); format: cell-based, human; conditions: vs DMSO
# Description: GSCs in Matrigel 3D matrix, were treated with 40 µM entacapone or DMSO (control) and live imaging was performed in regular time intervals using the Incucyte live cell imaging system. Normalized area of invasion was quantified following normalization of the invading area with the area occupied by the GSC sphere.
# Patient derived glioma stem cells (GSCs) were incubated with 70 μM Compound 31 or DMSO (control) for 72 hours and GSC invasion into the surrounding extracellular matrix was quantified in real time using Incucyte Cell Imager. […] GSC invasion is one of the hallmarks of glioblastoma.
# [4] = tested on: diffuse intrinsic pontine glioma (DIPG) cells; test: Limiting dilution assay (LDA), DIPG cell self-renewal; format: cell-based, human; conditions: clonal tumor spheres over 2 weeks
# Description: A limiting dilution assay (LDA) was used to determine the effect of FTO inhibition with Compound 31 on the self-renewal ability of diffuse intrinsic pontine glioma (DIPG) cells—a type of brain tumor found in an area of the brainstem known as the pons. With this assay DIPG cells are plated on 96-well plates in various numbers (2000 cell per well down to 1 cell per well) and the ability of cells to self-renew and form clonal tumor spheres is measured over a period of 2 weeks.
# [5] = tested on: Patient derived DIPG cells; test: DIPG cell invasion (Incucyte Cell Imager); format: cell-based, human; conditions: 10 μM, 72 hours, vs DMSO, p<0.05
# Description: Patient derived DIPG cells were incubated with 10 μM Compound 31 or DMSO (control) for 72 hours and DIPG invasion into the surrounding extracellular matrix was quantified in real time using Incucyte Cell Imager.
# [6] = tested on: GSCs from two patients with glioblastoma; test: In vitro extreme limiting dilution analysis (ELDA), GSC self-renewal; format: cell-based, human; conditions: 40 μM, 14 days, vs DMSO
# Description: To examine whether treatment with Entacapone affects the ability of GSCs to self-renew, serial dilutions of GSCs were cultured from two patients with glioblastoma in the presence of 40 μM entacapone or DMSO (Control) for 14 days.
# [7] = tested on: cancer stem cell transcripts in GSCs; test: qPCR array for 84 cancer stem cell markers in GSCs; format: cell-based, human; conditions: 40 µM, 48 hours
# Description: GSCs were treated with 40 µM entacapone for 48 hours to assess whether entacapone would affect expression of stemness-related transcripts. A qPCR array for 84 validated cancer stem cell markers was performed (Qiagen-RT-profiler PCR arrays).
# [8] = tested on: Notch1; test: Notch1 inhibition assay (Western Blot in GSCs); format: cell-based, human; conditions: 40 µM, 48 hours, two GSC lines
# [9] = tested on: Hela cells; conditions: cited from earlier work
# [10] = tested on: GSC-grafted mice; conditions: cited from earlier work
# FTO, sequence (Q9C0B1 whole entry, species assumed): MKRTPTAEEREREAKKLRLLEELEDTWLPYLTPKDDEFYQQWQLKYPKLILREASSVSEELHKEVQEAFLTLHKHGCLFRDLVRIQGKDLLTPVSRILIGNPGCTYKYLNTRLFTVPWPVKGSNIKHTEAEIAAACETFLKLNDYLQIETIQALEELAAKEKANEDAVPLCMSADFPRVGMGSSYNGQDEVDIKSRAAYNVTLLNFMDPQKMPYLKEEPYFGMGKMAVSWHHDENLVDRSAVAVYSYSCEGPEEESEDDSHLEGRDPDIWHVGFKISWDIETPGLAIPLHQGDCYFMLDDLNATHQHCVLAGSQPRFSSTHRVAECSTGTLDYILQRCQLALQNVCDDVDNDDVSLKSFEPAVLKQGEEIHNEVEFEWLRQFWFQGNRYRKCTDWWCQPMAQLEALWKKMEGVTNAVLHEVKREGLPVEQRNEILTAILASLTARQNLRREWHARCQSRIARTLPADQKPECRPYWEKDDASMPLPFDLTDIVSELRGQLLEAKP
smiles,measurement,setting,value
CCN(CCN1CC(OC)C1)C(=O)/C(C#N)=C/c1cc(O)c(O)c([N+](=O)[O-])c1 [Compound 1],FTO inhibitory activity compared to entacapone,[1],significantly higher FTO inhibitory activity compared to entacapone
same,% FTO activity,[1]; 20 μM,61%
same,inhibition at 20 µM,[1]; 20 μM,≥ 40%
same,% FTO activity,[1]; 40 μM,59%
CCN(CCSCCCF)C(=O)/C(C#N)=C/c1cc(O)c(O)c([N+](=O)[O-])c1 [Compound 31],FTO inhibitory activity compared to entacapone,[1],significantly higher FTO inhibitory activity compared to entacapone
same,% FTO activity,[1]; 20 μM,54%
same,inhibition at 20 µM,[1]; 20 μM,≥ 40%
same,% FTO activity,[1]; 40 μM,48%
same,"IC10, viable cells",[2],70 µM
same,IC50,"[2]; Homo sapiens, read-out: IC50, viable cells",114 µM
same,GSC invasion into surrounding extracellular matrix,"[3]; 70 μM, 72 hours, p<0.05",significant inhibition of GSC invasion
same,self-renewal ability of DIPG cells,[4],significantly inhibits the self-renewal ability of DIPG cells
same,DIPG invasion into surrounding extracellular matrix,[5],significant inhibition of DIPG invasion
"CCN(CC)C(=O)/C(C#N)=C/c1cc(O)c(O)c([N+](=O)[O-])c1 [Entacapone, entacapone, reference compound]",% FTO activity,[1]; 20 μM,83%
same,inhibition at 20 µM,[1]; 20 μM,< 20%
same,% FTO activity,[1]; 40 μM,61.5%^
same,FTO activity inhibition compared with 20 μM compound 31,[1]; 40 μM,less FTO activity inhibition than 20 UM compound 31
same,normalized GSC invasion area,"[3]; 40 µM, Matrigel 3D matrix, 66 hours",inhibits invasion of GSCs
same,tumor-sphere formation frequency of GSCs,[6],significantly decreased the tumor-sphere formation frequency
same,expression of cancer stem cell transcripts,[7],significant inhibition of several cancer stem cell transcripts
same,Notch1 protein expression,[8],induces inhibition of Notch1 protein expression
C=CC(=O)Nc1ccc([N+](=O)[O-])cc1 [N-(4-nitrophenyl) acrylamide],IC50,[9],1000 µM
CCOC(=O)c1ccccc1Nc1c(Cl)ccc(C)c1Cl [ethyl ester of meclofenamic acid],lifespan,[10],substantially prolong lifespan
same,tumor progression,[10],suppress tumor progression
